From patent publication US5407660A, “Diagnostic liposomal compositions for enhancing NMR imaging” (Mallinckrodt Medical, Inc., priority 1993, dated 1995)
Like-named read-outs stand apart in the source and are kept apart here.

How the values were obtained:
[1] = for Blood T1: before contrast 510
[2] = Acute intravenous toxicity of GdNa2 DTPA in mice (Example 7); assay type: in vivo, Swiss CF-1 albino mice
Description: The acute intravenous toxicity of disodium (diethylenetriaminepentaacetato)gadolinium (III) (composition C of Example 1) was studied.
A total of 16 Swiss CF-1 albino mice (8 male, 22.0-25.6 g; 8 female, 18.2-24.1 g) were used. Picric acid markings were used for individual identification.
The protocol of Example 4 was used. Groups of 2-4 mice, with sexes equally represented, received single intravenous doses of the test substance according to the following schedule: […]

[3] = Abdominal NMR imaging in rabbits (Example 11); assay type: in vivo
Protocol: Two rabbits were anesthetized and abdominal NMR images were obtained in the General Electric NMR scanner. Rabbits then received intravenous doses of 0.3 ml/kg (0.5 mmol Gd(III)/kg) of the preparation of composition D of Example 1 (GdNa2 DTPA) and additional abdominal NMR images were made over a period of two hours after dosing.

[4] = 0.34 mmol Gd(III)/kg, 10 minutes

SMILES: O=C([O-])CN(CCN(CC(=O)[O-])CC(=O)[O-])CCN(CC(=O)[O-])CC(=O)[O-].[Gd+3].[Na+].[Na+] [GdNa2 DTPA, disodium (diethylenetriaminepentaacetato)gadolinium (III)]
- Mean T1, Blood (0.51 mmol/kg, 5 minutes): 292 ms
- Mean T1, Blood (0.51 mmol/kg, 10 minutes): 321 ms
- Mean T1, Blood (0.51 mmol/kg, 15 minutes): 337 ms
- Mean tissue T1, Fat (0.51 mmol/kg, 15 minutes): 61 ms
- Mean tissue T1, Heart (0.51 mmol/kg, 15 minutes): 267 ms
- Mean tissue T1, Large Intestine (0.51 mmol/kg, 15 minutes): 228 ms
- Mean tissue T1, Liver (0.51 mmol/kg, 15 minutes): 172 ms
- Mean tissue T1, Lung (0.51 mmol/kg, 15 minutes): 303 ms
- Mean tissue T1, Pancreas (0.51 mmol/kg, 15 minutes): 172 ms
- Mean tissue T1, Renal Cortex (0.51 mmol/kg, 15 minutes): 137 ms
- Mean tissue T1, Renal Medulla (0.51 mmol/kg, 15 minutes): 130 ms
- Mean tissue T1, Skel. Muscle (0.51 mmol/kg, 15 minutes): 217 ms
- Mean tissue T1, Small Intestine (0.51 mmol/kg, 15 minutes): 224 ms
- Mean tissue T1, Spleen (0.51 mmol/kg, 15 minutes): 257 ms
- Mean tissue T1, Stomach (0.51 mmol/kg, 15 minutes): 219 ms
- changes in T1 relative to changes in T2 (0.1, 0.3 and 1.0 ml/kg i.v.): generally greater than changes in T2 values
- tissue and blood T1 and T2 values (in words) (0.1, 0.3 and 1.0 ml/kg i.v.): Dose-related changes in tissue and blood T1 and T2 values
- tissues with the most profound effects on T1 (0.1, 0.3 and 1.0 ml/kg i.v.): blood and kidneys (both cortex and medulla) with large intestine, pancreas and stomach the next most sensitive
- Cardiovascular effects (rabbit, in vivo, iv): minimal
- T1, infarcted regions of heart muscle ([1]; 0.17 mmol Gd(III)/kg, 10 minutes): 290 ms
- T1, normally perfused myocardial tissue ([1]; 0.17 mmol Gd(III)/kg, 10 minutes, untreated 330): 180 ms
- average T1, infarcted tissue ([1]; 0.34 mmol Gd(III)/kg): 230 ms
- Blood T1 ([1]; 0.34 mmol Gd(III)/kg, 5 minutes): 50 ms
- images of excised hearts, normal versus infarcted tissue [1, 4]: marked differences between normal and infarcted tissues
- Blood T1 [1, 4]: 100 ms
- average T1, normally perfused myocardium ([1]; 0.34 mmol Gd(III)/kg, untreated 330): 135 ms
- dose up to which no deaths were observed ([2]; intravenous, mice): 12000 mg/kg
- acute intravenous toxicity profile (in words) ([2]; mouse): relatively safe mouse acute intravenous toxicity profile
- body weight (in words) ([2]; mouse, in vivo): slight reduction in body weight
- respiratory distress ([2]; mouse, in vivo): respiratory distress was observed
- time until all mice appeared normal ([2]; mouse, in vivo): ≤ 6 h
- renal medulla and renal cortex proton images ([3]; 0.3 ml/kg (0.5 mmol Gd(III)/kg) i.v.): Marked alteration
- time of peak effects on renal images ([3]; 0.3 ml/kg i.v.): ≤ 15 min
